Legend:
AP activity (Wieslab) = experiment: First in human (FIH) studies: suppression of AP activity (Wieslab); format: in vivo
[1] = Human absorption, distribution, metabolism, and excretion (ADME) study in healthy volunteers; format: in vivo
[2] = tested on: organic anion-transporting polypeptide (OATP) hepatic uptake transporter; experiment: Preclinical studies of systemic disposition: hepatic uptake transporter; format: in vitro ADME
Source text: In addition, some contribution from direct kidney (approximately 20%) and direct biliary excretion (around 5 to 10%) is anticipated. Iptacopan is also a substrate for the organic anion-transporting polypeptide (OATP) hepatic uptake transporter. […] Typical examples are digoxin, quinidine, paclitaxel, fentanyl and phenytoin. However, if no alternative treatment is available, a staggered dosing approach is recommended (refer to Section 6.2.1.1). • · Concomitant medication listed under exclusion criteria 25 and 26 is prohibited except for the condition specified in the criterion.

[3] = Food effect in study CLNP023X2101; format: in vivo
AP = conditions: multiple in vitro and in vivo non-clinical studies (Schubart 2019); cited from earlier work

Compound: CCO[C@H]1CCN(Cc2c(OC)cc(C)c3[nH]ccc23)[C@H](c2ccc(C(=O)O)cc2)C1 [iptacopan, 4-((2S,4S)-(4-ethoxy-1-((5-methoxy-7-methyl-1H-indol-4-yl)methyl)piperidin-2-yl))benzoic acid]
- inhibition of the AP (Wieslab assay) predicted by exposure-response model (AP activity (Wieslab); about 200 mg b.i.d, in most participants, model developed with FIH data in healthy volunteers): > 90%
- suppression of the AP (inhibition), sustained (AP activity (Wieslab); over 14 days of dosing at 200 mg b.i.d): ≥ 80%
- inhibition of AP activity (Wieslab) (AP activity (Wieslab); two hours post-dose, single dose of 200 mg, FIH study participants): ≥ 80%
- direct kidney excretion, share of overall iptacopan dose [1]: 20-25%
- kidney contribution to the overall iptacopan clearance [1]: 20-25%
- substrate of OATP hepatic uptake transporter [2]: substrate
- food effect [3]: no food effect
- inhibition of the AP (AP): demonstrated inhibition of the AP

Source: patent US20240238266A1 (Novartis AG, priority 2021, published 2024)
